Laboratory results: patent US12202858B2, “Solid-phase carrier including IgG-binding peptide, and IgG separation method” (KAGOSHIMA UNIVERSITY, priority 2018, dated 2025)
Bridges are numbered along the chain shown (N, C = ends). Primed or numbered codes have the meaning given here. Where no end group is shown, it is not given here. [ ]: non-standard residue; d: D form. PEG4′ = not defined here

Experiments:
human IgG = assay: Affinity analysis by surface plasmon resonance (BIAcore T200), human IgG immobilized on sensor chip; format: binding; conditions: BIAcore T200, HBS-EP buffer pH 7.4, immobilized human IgG
Experimental: The affinity analysis was performed by the following method. First, a solution containing equal amounts of 0.4 M EDC (1-ethyl-3-(3-dimethylaminopropyl)-carbodiimide) and 0.1 M sulfo-NHS (sulfo-N-hydroxysuccinimide)) was injected at a flow rate of […] onto a CMS sensor chip set in BIAcore T200 (GE healthcare), thereby activating the sensor chip. Then, under the condition of pH 5.5 (10 mM Na acetate), human IgG was immobilized onto the sensor chip. For the measurement, HBS-EP buffer (10 mM HEPES, 150 mM NaCl, 0.005% Tween 20, 3 mM EDTA, pH 7.4) was used, and the binding reaction was monitored by injecting 15.6, 31.2, 62.5, 125, 250, 500, and 1000 nM of the purified cross-linked cyclic peptide described above for 180 seconds at a flow rate of […]. For measuring the dissociation reaction, only the buffer was injected for 600 seconds. The analysis of interaction parameters was performed using BIA evaluation T100 software.
In Comparative Example 1, the cross-linked cyclic peptide described in Patent Document 2 was synthesized, and measurement of affinity was performed in the same manner as in Example 1. Synthesis of the peptide and cross-linking reaction were carried out under the following conditions.

[1] = tested on: human serum-derived y-globulin; assay: Evaluation of alkali resistance: DBC after washing with 0.1 M sodium hydroxide solution; format: physicochemical; conditions: up to ten cycles of 0.1 M sodium hydroxide treatment
Experimental: The DBC measurement was performed using a liquid chromatography instrument AKTAexplore (GE Healthcare). After equilibrating the prepared column with an adsorption solution, 1 mg/mL human serum-derived y-globulin (Sigma-Aldrich) dissolved in the adsorption solution was fed at a flow rate of 1 mL/min. The DBC was determined from the amount of the sample fed until the value of an absorbance at 280 nm excluding the non-adsorbed component reached 10% of the absorbance of the entire sample.
To a 1-mg peptide-immobilized 1-mL column prepared by the same method as in Example 2, 10 mL of 0.1 M sodium hydroxide solution was fed. The column was then washed with 10 mL of an adsorption solution. After washing with the sodium hydroxide solution/adsorption solution for 1, 2, 5, and 10 times, measurement of DBC was performed at a flow rate of 1 mL/min in the same manner as in Example 2. The variation rate of DBC was determined based on the DBC before the sodium hydroxide treatment as 100%. […]

Substance | Kd (human IgG) [nM] | koff (human IgG) [s⁻¹] | kon (human IgG) [M⁻¹ s⁻¹] | decrease in DBC by sodium hydroxide treatment (alkali resistance) [1]
N-terminal PEG4-modified, C-terminal amidated cross-linked cyclic peptide GPDCAYHRGELVWCTFH (SEQ ID NO: 31), two cysteine residues linked as in the formula [Example 1] | 340 | 0.22 | 650000 | almost no decrease in DBC
PEG4-modified, amidated GPDCAYHRGELVWCTFH peptide of Patent Document 2, cysteine sulfide groups linked via 1,3-dichloro-2-propanone-derived linker ([PEG4′]GPDCAYHRGELVWCTFH-NH2; bridge 5-15; not fully specified (bridges)) [Comparative Example 1, reference compound] | 4900 | 0.005 | 1000 | –
